Read-outs that look alike come from different tables or passages of the source.
Test: Single dose clinical study: plasma Compound A pharmacokinetics
Type: in vivo, human
Conditions: human, plasma
Description: This was a single center, single dose, randomized, double blind, placebo controlled study in healthy subjects. It consisted of 4 parts: Parts A, B, C, and D. Each of the four study parts had 2 phases: Prerandomization Phase and Randomization Phase. The Prerandomization Phase lasted up to 30 days and consisted of a Screening Period and a Baseline Period, during which each subject's study eligibility was determined and baseline assessments were performed.
In Part A, there were 8 sequential cohorts of healthy adult subjects (18-50 years of age). Subjects were randomly assigned to Compound A or placebo in a ratio of 6:2, respectively. Subjects in the Compound A cohorts were treated with single ascending doses of 10, 25, 50, 100, 200, 400, 800, or 1200 mg.
In Part B, there were 4 cohorts of healthy adult subjects (18-50 years of age). There were 8 subjects in Cohort 1, with 6 subjects randomly assigned to receive single doses of Compound A (400 mg) and 2 subjects randomly assigned to receive placebo. There were 7 subjects in Cohort 2 and Cohort 3, each with 6 subjects randomly assigned to receive single doses of Compound A (100 and 200 mg, respectively) and 1 subject randomly assigned to receive placebo. The dose of 100 mg selected in Cohort 2 was based on preliminary analysis of Cohort 1 data; this dose was predicted from PK/PD modeling to achieve a sustained CSF cGMP increase from baseline of approximately 200% when administered to steady state, and thereby provided a potentially therapeutic dose for further evaluation in future studies. There were 7 subjects in Cohort 4, with 6 subjects randomly assigned to receive a single dose of Compound A (50 mg [n=3] or 75 mg [n=3]) and 1 subject randomly assigned to receive placebo. The doses for Cohorts 3 and 4 were selected based on PK/PD modeling of the data in Cohorts 1 and 2.
Subjects in Cohort 2 who had received Compound A 100 mg or placebo under fasted conditions (1st Treatment Period) also participated in an evaluation of food effect on the PK of Compound A (2nd Treatment Period). After a washout period of at least 13 days (or 5 half-lives of Compound A, whichever was longer), subjects were admitted to the clinic for baseline assessments (2nd Baseline Period) and then received a single dose of the same treatment (Compound A 100 mg or placebo) after consuming a high fat and high calorie meal over 30 minutes. Blood PK samples were collected at prespecified time points. Safety evaluations were also assessed. CSF was not collected for PD evaluation during the 2nd Treatment Period. A Follow Up Visit occurred on Day 10 of Treatment Period 2.
In Part C, there was 1 cohort of 8 healthy elderly subjects (65 to 85 years of age) randomly assigned to receive a single dose of Compound A 100 mg or placebo in a ratio of 6:2, respectively.
In Part D, 3 cohorts of healthy adult Japanese subjects were randomized in parallel. There were 7 subjects in each cohort and subjects were randomly assigned to receive single doses of Compound A (25, 100, or 400 mg) or placebo in a ratio of 6:1, respectively.
Blood samples for determination of plasma Compound A concentrations were collected from predose to 216 hours postdose. On Day 1, blood PK samples were collected at predose and postdose 0.5 (30 minutes), 1, 1.5, 2, 3, 4, 5, 6, 8, 12, and 18 hours. Thereafter, samples were collected on Day 2 (24 and 36 hours postdose), Day 3 (48 hours postdose), Day 4 (72 hours postdose), Day 5 (96 hours postdose), Day 6 (120 hours postdose), Day 7 (144 hours postdose), and Day 10 (216 hours postdose).
Blood samples for determination of plasma Compound A concentrations were collected from predose to 216 hours postdose. For all cohorts, blood PK samples were collected on Day 1 at predose and postdose at 0.5 (30 minutes), 1, 1.5, 2, 3, 4, 5, 6, 8, 10, 12, and 18 hours. […]

COc1ncc(C)c(-c2ccc3c(c2)[nH]c(=O)c2cnn([C@H]4CCOC4)c23)c1C [Compound A, (S)-7-(2-methoxy-3,5-dimethylpyridin-4-yl)-1-(tetrahydrofuran-3-yl)-1H-pyrazolo[4,3-c]quin olin-4(5H)-one]
Cmax (oral, 400 mg, non-Japanese, 400 mg, with weight as covariate, read-out: Cmax Geometric LS Means Reference): 833 ng/mL | AUC (oral, 400 mg, non-Japanese, 400 mg, without weight as covariate, read-out: AUC(O-inf) Geometric LS Means Reference): 35800 ng·h/mL | Cmax (oral, 400 mg, non-Japanese, 400 mg, without weight as covariate, read-out: Cmax Geometric LS Means Reference): 827 ng/mL | half-life (oral, single doses of 10 to 1200 mg, read-out: Mean t1/2 across all doses): 26.8 to 33.6 h | Tmax (oral, single doses of 10 to 1200 mg, read-out: median plasma tmax across all doses): 2 to 4 h | AUC(0-t) (po, 10 mg, healthy adults (Parts A,B), single oral 10 mg, fasted, read-out: AUC(0-24 h) GM): 719 ng·h/mL | AUC(0-t) (po, 10 mg, healthy adults (Parts A,B), single oral 10 mg, fasted, read-out: AUC(0-30 h) GM): 863 ng·h/mL | AUC(0-t) (po, 10 mg, healthy adults (Parts A,B), single oral 10 mg, fasted, read-out: AUC(0-72 h) GM): 1430 ng·h/mL | AUC(0-inf) (po, 10 mg, healthy adults (Parts A,B), single oral 10 mg, fasted, read-out: AUC(0-inf) GM): 1840 ng·h/mL | AUC(0-t) (po, 10 mg, healthy adults (Parts A,B), single oral 10 mg, fasted, read-out: AUC(0-t) GM): 1700 ng·h/mL | Cmax (po, 10 mg, healthy adults (Parts A,B), single oral 10 mg, fasted, read-out: Cmax GM): 60.2 ng/mL | Vd/F (po, 10 mg, healthy adults (Parts A,B), single oral 10 mg, fasted, read-out: Vz/F GM): 255 L | half-life (po, 10 mg, healthy adults (Parts A,B), single oral 10 mg, fasted, read-out: t1/2 Mean (converted)): 33.6 h | Tmax (po, 10 mg, healthy adults (Parts A,B), single oral 10 mg, fasted, read-out: tmax Median): 2.27 h | AUC(0-inf) (po, 25 mg, Japanese Subjects (Part D), single oral 25 mg, read-out: AUC(0-inf) GM): 4580 ng·h/mL | Cmax (po, 25 mg, Japanese Subjects (Part D), single oral 25 mg, read-out: Cmax GM (% CV)): 212 ng/mL | Vd/F (po, 25 mg, Japanese Subjects (Part D), single oral 25 mg, read-out: Vz/F GM (% CV)): 165 L | half-life (po, 25 mg, Japanese Subjects (Part D), single oral 25 mg, read-out: t1/2 Mean (SD) (converted)): 21.5 h | Tmax (po, 25 mg, Japanese Subjects (Part D), single oral 25 mg, read-out: tmax Median): 2.08 h | AUC(0-inf) (po, 25 mg, Non-Japanese Subjects (Parts A,B), single oral 25 mg, read-out: AUC(0-inf) GM): 4340 ng·h/mL | Cmax (po, 25 mg, Non-Japanese Subjects (Parts A,B), single oral 25 mg, read-out: Cmax GM (% CV)): 152 ng/mL | Vd/F (po, 25 mg, Non-Japanese Subjects (Parts A,B), single oral 25 mg, read-out: Vz/F GM (% CV)): 216 L | half-life (po, 25 mg, Non-Japanese Subjects (Parts A,B), single oral 25 mg, read-out: t1/2 Mean (SD) (converted)): 26.8 h | Tmax (po, 25 mg, Non-Japanese Subjects (Parts A,B), single oral 25 mg, read-out: tmax Median): 2.65 h | AUC(0-t) (po, 25 mg, healthy adults (Parts A,B), single oral 25 mg, fasted, read-out: AUC(0-24 h) GM): 1850 ng·h/mL | AUC(0-t) (po, 25 mg, healthy adults (Parts A,B), single oral 25 mg, fasted, read-out: AUC(0-30 h) GM): 2200 ng·h/mL | AUC(0-t) (po, 25 mg, healthy adults (Parts A,B), single oral 25 mg, fasted, read-out: AUC(0-72 h) GM): 3570 ng·h/mL | AUC(0-inf) (po, 25 mg, healthy adults (Parts A,B), single oral 25 mg, fasted, read-out: AUC(0-inf) GM): 4340 ng·h/mL | AUC(0-t) (po, 25 mg, healthy adults (Parts A,B), single oral 25 mg, fasted, read-out: AUC(0-t) GM): 4200 ng·h/mL | Cmax (po, 25 mg, healthy adults (Parts A,B), single oral 25 mg, fasted, read-out: Cmax GM): 152 ng/mL | Vd/F (po, 25 mg, healthy adults (Parts A,B), single oral 25 mg, fasted, read-out: Vz/F GM): 216 L | half-life (po, 25 mg, healthy adults (Parts A,B), single oral 25 mg, fasted, read-out: t1/2 Mean (converted)): 26.8 h | Tmax (po, 25 mg, healthy adults (Parts A,B), single oral 25 mg, fasted, read-out: tmax Median): 2.65 h | AUC(0-t) (po, 50 mg, healthy adults (Parts A,B), single oral 50 mg, fasted, read-out: AUC(0-24 h) GM): 3370 ng·h/mL | AUC(0-t) (po, 50 mg, healthy adults (Parts A,B), single oral 50 mg, fasted, read-out: AUC(0-30 h) GM): 4010 ng·h/mL | AUC(0-t) (po, 50 mg, healthy adults (Parts A,B), single oral 50 mg, fasted, read-out: AUC(0-72 h) GM): 6490 ng·h/mL | AUC(0-inf) (po, 50 mg, healthy adults (Parts A,B), single oral 50 mg, fasted, read-out: AUC(0-inf) GM): 7900 ng·h/mL | AUC(0-t) (po, 50 mg, healthy adults (Parts A,B), single oral 50 mg, fasted, read-out: AUC(0-t) GM): 7720 ng·h/mL | Cmax (po, 50 mg, healthy adults (Parts A,B), single oral 50 mg, fasted, read-out: Cmax GM): 225 ng/mL | Vd/F (po, 50 mg, healthy adults (Parts A,B), single oral 50 mg, fasted, read-out: Vz/F GM): 233 L | half-life (po, 50 mg, healthy adults (Parts A,B), single oral 50 mg, fasted, read-out: t1/2 Mean (converted)): 26.9 h | Tmax (po, 50 mg, healthy adults (Parts A,B), single oral 50 mg, fasted, read-out: tmax Median): 4 h | AUC(0-t) (po, 75 mg, healthy adults (Parts A,B), single oral 75 mg, fasted, read-out: AUC(0-24 h) GM): 3650 ng·h/mL | AUC(0-t) (po, 75 mg, healthy adults (Parts A,B), single oral 75 mg, fasted, read-out: AUC(0-30 h) GM): 4460 ng·h/mL | AUC(0-t) (po, 75 mg, healthy adults (Parts A,B), single oral 75 mg, fasted, read-out: AUC(0-72 h) GM): 7880 ng·h/mL | AUC(0-inf) (po, 75 mg, healthy adults (Parts A,B), single oral 75 mg, fasted, read-out: AUC(0-inf) GM): 9880 ng·h/mL | AUC(0-t) (po, 75 mg, healthy adults (Parts A,B), single oral 75 mg, fasted, read-out: AUC(0-t) GM): 9520 ng·h/mL | Cmax (po, 75 mg, healthy adults (Parts A,B), single oral 75 mg, fasted, read-out: Cmax GM): 222 ng/mL | Vd/F (po, 75 mg, healthy adults (Parts A,B), single oral 75 mg, fasted, read-out: Vz/F GM): 308 L | half-life (po, 75 mg, healthy adults (Parts A,B), single oral 75 mg, fasted, read-out: t1/2 Mean (converted)): 28.9 h | Tmax (po, 75 mg, healthy adults (Parts A,B), single oral 75 mg, fasted, read-out: tmax Median): 3 h | AUC(0-inf) (po, 100 mg, Elderly, single oral 100 mg, read-out: AUC(0-inf) Geometric LS Means Test): 21300 ng·h/mL | Cmax (po, 100 mg, Elderly, single oral 100 mg, read-out: Cmax Geometric LS Means Test): 543 ng/mL | AUC(0-inf) (po, 100 mg, Younger Adults (Parts A,B), single oral 100 mg, read-out: AUC(0-inf) Geometric LS Means Reference): 15000 ng·h/mL | Cmax (po, 100 mg, Younger Adults (Parts A,B), single oral 100 mg, read-out: Cmax Geometric LS Means Reference): 373 ng/mL | AUC(0-inf) (po, 100 mg, Japanese Subjects (Part D), single oral 100 mg, read-out: AUC(0-inf) GM): 14200 ng·h/mL
